In patent US8501721B2, “Postprandial hyperglycemia-improving agent” (Kao Corporation, priority 2009, dated 2013):

Tested on: Wistar rats
Test: Postprandial maximum increase of blood glucose in rat after oral administration of cooked white rice and triolein
Format: in vivo
Conditions: for Postprandial maximum increase of blood glucose (maximum increase value from initial value, relative value based on 100 for control group): with 2 mg white rice and 1.5 μg triolein per g body weight, fasted male Wistar rats, average±standard error
Protocol: To white rice (Koshihikari produced in Tochigi prefecture), water (1.5 times equivalent to the volume of the white rice) was added to allow the rice to absorb the water for 30 minutes. Then, the rice was cooked with a rice cooker (ZOJIRUSHI microcomputer-controlled rice cooker NS-KG05, manufactured by Zojirushi Corporation). Water and triolein (manufactured by Sigma-Aldrich Corporation) were added to the cooked rice, followed by homogenization until the mixture was sufficiently homogenized, thereby yielding a sample for administration. The sample for administration was orally probe-administered to a group at 2 mg of white rice per g body weight and 1.5 μg of triolein per g body weight (the group as a control group). Each of the purified cycloartenol produced in Example 1 described above was added to a sample for administration (dissolved in triolein). Each of the resultants was orally probe-administered to a group at 2 mg of white rice per g body weight, 1.5 μg of triolein per g body weight, and 0.075 μg, or 0.15 μg, of cycloartenol equivalent per g body weight (the groups as Test group 1 and 2). Further, purified 24-methylenecycloartanol was added to a sample for administration (dissolved in triolein). The resultant was orally probe-administered to a group at 2 mg of white rice per g body weight, 1.5 μg of triolein per g body weight, and 0.15 μg of 24-methylenecycloartanol equivalent per g body weight (the group as Comparative group).
8-week old male Wistar rats (supplied by Japan SLC Inc.), after 15 hours of fasting, were divided into groups each consisting of 10 rats with their body weight being almost the same between the groups. Immediately after the administration to each group, blood sample was collected from tail vein sequentially. The blood sample was measured for its blood glucose level by using ACCU-CHEK AVIVA (manufactured by Roche Diagnostics GmbH) to calculate the maximum increase of blood glucose.
Results are represented as average±standard error, and statistical significant differences between groups were determined by the Dunnett's test with respect to the control group (*p <0.05).

[1] = 0.15 μg per g body weight, *p<0.05 vs control (Dunnett)

SMILES | Postprandial maximum increase of blood glucose (maximum increase value from initial value, relative value based on 100 for control group) [1] | postprandial increase of blood glucose (result in words) (0.075 μg per g body weight, rat) | Postprandial maximum increase of blood glucose (maximum increase value from initial value, relative value based on 100 for control group) (0.075 μg per g body weight) | postprandial increase of blood glucose (result in words) (0.15 μg per g body weight, rat) | effect of inhibiting the postprandial increase of blood glucose compared with 24-methylenecycloartanol (rat, comparison at 0.15 μg per g body weight)
C=C(CC[C@@H](C)[C@H]1CC[C@@]2(C)[C@@H]3CC[C@H]4C(C)(C)[C@@H](O)CC[C@@]45C[C@@]35CC[C@]12C)C(C)C [24-methylenecycloartanol, reference compound] | 89.25 ± 4.32 relative value based on 100 for control group | – | – | – | –
CC(C)=CCC[C@@H](C)[C@H]1CC[C@@]2(C)[C@@H]3CC[C@H]4C(C)(C)[C@@H](O)CC[C@@]45C[C@@]35CC[C@]12C [cycloartenol] | 79.74 ± 7.71* relative value based on 100 for control group | tended to be decreased | 92.03 ± 3.16 relative value based on 100 for control group | significantly inhibited | stronger than that of 24-methylenecycloartanol
